Experimental data from ChEMBL document CHEMBL4118098, “Discovery of DS28120313 as a potent orally active hepcidin production inhibitor: Design and optimization of novel 4,6-disubstituted indazole derivatives” (Bioorg Med Chem Lett, 2017).

What follows are compounds tested on HepG2 (assay: Inhibition of human recombinant BMP6-stimulated hepcidin mRNA expression in human HepG2 cells after 6 hrs by qRT-PCR analysis). Conditions: HepG2, 6 h.
Format: functional, cell-based

Row | Structure (SMILES) | IC50 [nM]
1 | COC(=O)Nc1cc(-c2c(C)n[nH]c2C)cc2[nH]ncc12 | 150
2 | CNC(=O)c1cc(-c2c(C3CC3)n[nH]c2C)cc2[nH]ncc12 | 2200
3 | Cc1[nH]nc(C2CC2)c1-c1cc(NC(=O)C2CC2)c2cn[nH]c2c1 | 1000
4 | Cc1[nH]nc(C2CC2)c1-c1ccc2c(-c3ccc[nH]3)n[nH]c2c1 | 3100
5 | Cc1[nH]nc(C2CC2)c1-c1cc(NC(=O)c2ccc(N3CCN(C)CC3)cc2)c2cn[nH]c2c1 | 1900
6 | Cc1[nH]nc(C2CC2)c1-c1cc(NS(C)(=O)=O)c2cn[nH]c2c1 | 1200
7 | CCOC(=O)Nc1cc(-c2c(C3CC3)n[nH]c2C)cc2[nH]ncc12 | 660
8 | COCc1n[nH]c(C)c1-c1cc(NC(=O)OC)c2cn[nH]c2c1 | 3900
9 | Cc1[nH]nc(C2CC2)c1-c1ccc2cn[nH]c2c1 | 4100
10 | COC(=O)Nc1cc(-c2c(-c3ccccc3)n[nH]c2C)cc2[nH]ncc12 | 1100

Other lines, results leading:

Row | IC50 [nM] | Structure (SMILES)
11 | 3000 | COC(=O)N(C)c1cc(-c2c(C3CC3)n[nH]c2C)cc2[nH]ncc12
12 | 2300 | Cc1[nH]nc(C2CC2)c1-c1ccc2c(-c3cccnc3)n[nH]c2c1
13 | 2000 | CNC(=O)c1n[nH]c(C)c1-c1cc(NC(=O)OC)c2cn[nH]c2c1
14 | > 10000 | COC(=O)Nc1cc(-c2c(C(=O)O)n[nH]c2C)cc2[nH]ncc12
15 | 340 | CNC(=O)Nc1cc(-c2c(C3CC3)n[nH]c2C)cc2[nH]ncc12
16 | 2700 | Cc1[nH]nc(C2CC2)c1-c1cc(N)c2cn[nH]c2c1
17 | 190 | CC(=O)Nc1cc(-c2c(C3CC3)n[nH]c2C)cc2[nH]ncc12
18 | 130 | COC(=O)Nc1cc(-c2c(C(=O)OC)n[nH]c2C)cc2[nH]ncc12
19 | 450 | CCC(=O)Nc1cc(-c2c(C3CC3)n[nH]c2C)cc2[nH]ncc12
20 | 190 | COC(=O)Nc1cc(-c2c(C(C)C)n[nH]c2C)cc2[nH]ncc12
21 | 170 | Cc1[nH]nc(C2CC2)c1-c1ccc2c(-c3ccc(N4CCNCC4)nc3)n[nH]c2c1
22 | 180 | CCc1n[nH]c(C)c1-c1cc(NC(=O)OC)c2cn[nH]c2c1
23 | 410 | CC(=O)Nc1n[nH]c2cc(-c3c(C4CC4)n[nH]c3C)ccc12
24 | 320 | COC(=O)Nc1cc(-c2c(-c3ccccn3)n[nH]c2C)cc2[nH]ncc12
25 | 2600 | Cc1[nH]nc(C2CC2)c1-c1ccc2c(-c3ccncc3)n[nH]c2c1
